Results as given in patent publication US12577234B2, “Antagonists of the muscarinic acetylcholine receptor M4” (Vanderbilt University, priority 2017, dated 2026).

Target: T1, human mAChR M4 (Homo sapiens, UniProt P08173)
T1 construct: expressed in transfected cells; host or cells: CHO-K1 (ATCC), stably co-expressing chimeric G protein Gqi5
T1 sequence (P08173 1-479): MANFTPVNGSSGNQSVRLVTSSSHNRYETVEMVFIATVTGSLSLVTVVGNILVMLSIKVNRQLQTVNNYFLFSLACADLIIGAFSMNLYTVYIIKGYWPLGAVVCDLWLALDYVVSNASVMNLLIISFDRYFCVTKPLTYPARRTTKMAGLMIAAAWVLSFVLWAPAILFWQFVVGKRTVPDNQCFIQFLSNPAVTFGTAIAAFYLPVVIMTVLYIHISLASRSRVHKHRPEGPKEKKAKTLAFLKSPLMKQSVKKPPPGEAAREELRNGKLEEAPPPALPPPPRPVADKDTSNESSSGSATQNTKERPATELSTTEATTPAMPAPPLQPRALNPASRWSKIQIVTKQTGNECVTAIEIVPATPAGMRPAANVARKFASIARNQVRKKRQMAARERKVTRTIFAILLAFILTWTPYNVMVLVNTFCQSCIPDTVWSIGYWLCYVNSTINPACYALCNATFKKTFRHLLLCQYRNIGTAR
Assay: mAChR M4 cell-based functional assay (calcium mobilization, EC80 acetylcholine), human M4
Conditions: Table 9; for IC50: M4/Gqi5/CHO-K1 cells, decrease of EC80 acetylcholine response; for Emin: human M4, % ACh maximum at 30 μM
Method: Human or rat M4 cDNA, along with the chimeric G protein Gqi5, were transfected into Chinese hamster ovary (CHO-K1) cells purchased from the American Type Culture Collection using Lipofectamine2000. M4/Gqi5/CHO cells were grown in Ham's F-12 medium containing 10% heat-inactivated fetal bovine serum (FBS), 20 mM HEPES, 500 μg/mL G418 sulfate, and 200 μg/mL Hygromycin B.
For high throughput measurement of agonist-evoked increases in intracellular calcium, CHO-K1 cells stably expressing muscarinic receptors were plated in growth medium lacking G418 and hygromycin at 15,000 cells/20 μL/well in Greiner 384-well black-walled, tissue culture (TC)-treated, clear-bottom plates (VWR). Cells were incubated overnight at 37° C. and 5% CO2. […] Compound master plates were formatted in a 10 point concentration-response curve (CRC) format (1:3 dilutions) in 100% DMSO with a starting concentration of 10 or 1 mM using a BRAVO liquid handler (Agilent). Test compound CRCs were then transferred to daughter plates (240 nL) using the Echo acoustic plate reformatter (Labcyte, Sunnyvale, CA) and then diluted into assay buffer (40 μL) to a 2× stock using a Thermo Fisher Combi (Thermo Fisher Scientific, Waltham, MA).
Calcium flux was measured using the Functional Drug Screening System (FDSS) 6000 or 7000 (Hamamatsu Corporation, Tokyo, Japan) as an increase in the fluorescent static ratio. Compounds were applied to cells (20 μL, 2×) using the automated system of the FDSS at 2 seconds into the protocol and the data were collected at 1 Hz. […] Agonist activity was analyzed as a concentration-dependent increase in calcium mobilization upon compound addition. Positive allosteric modulator activity was analyzed as a concentration-dependent increase in the EC20 acetylcholine response. Antagonist activity was analyzed as a concentration-dependent decrease in the EC80 acetylcholine response; for the purposes of the tables herein, an IC50 (inhibitory concentration 50) was calculated as a concentration-dependent decrease of the response elicited by an EC80 concentration of acetylcholine. Concentration-response curves were generated using a four-parameter logistical equation in XLFit curve fitting software (IDBS, Bridgewater, NJ) for Excel (Microsoft, Redmond, WA) or Prism (GraphPad Software, Inc., San Diego, CA) or the Dotmatics software platform (Dotmatics, Bishop's Stortford, UK).

## CC(C)(C)CCN1C[C@H]2C[C@H](Nc3ccc(-c4cc(F)ccc4Cl)nn3)C[C@H]2C1 [Compound 28, (3aR,5s,6aS)-N-[6-(2-chloro-5-fluoro-phenyl)pyridazin-3-yl]-2-(3,3-dimethylbutyl)-3,3a,4,5,6,6a-hexahydro-1H-cyclopenta[c]pyrrol-5-amine]
  IC50: 10 nM
  Emin: 3.53%

## CCC(C)CN1C[C@H]2C[C@H](Nc3ccc(-c4cc(F)ccc4Cl)nn3)C[C@H]2C1 (stereo partly drawn) [Compound 29, (3aR,5s,6aS)-N-[6-(2-chloro-5-fluoro-phenyl)pyridazin-3-yl]-2-(2-methylbutyl)-3,3a,4,5,6,6a-hexahydro-1H-cyclopenta[c]pyrrol-5-amine]
  IC50: 2.6 nM
  Emin: 7.8%

## CCCC(C)CN1C[C@H]2C[C@H](Nc3ccc(-c4cc(F)ccc4Cl)nn3)C[C@H]2C1 (stereo partly drawn) [Compound 30, (3aR,5s,6aS)-N-[6-(2-chloro-5-fluoro-phenyl)pyridazin-3-yl]-2-(2-methylpentyl)-3,3a,4,5,6,6a-hexahydro-1H-cyclopenta[c]pyrrol-5-amine]
  IC50: 10 nM
  Emin: 2.88%

## Fc1ccc(Cl)c(-c2ccc(N[C@H]3C[C@@H]4CN(CC5CCCCC5)C[C@@H]4C3)nn2)c1 [Compound 31, (3aR,5s,6aS)-N-[6-(2-chloro-5-fluoro-phenyl)pyridazin-3-yl]-2-(cyclohexylmethyl)-3,3a,4,5,6,6a-hexahydro-1H-cyclopenta[c]pyrrol-5-amine]
  IC50: 8.6 nM
  Emin: 4.96%

## Fc1ccc(Cl)c(-c2ccc(N[C@H]3C[C@@H]4CN(CC5CCOCC5)C[C@@H]4C3)nn2)c1 [Compound 32, (3aR,5s,6aS)-N-[6-(2-chloro-5-fluoro-phenyl)pyridazin-3-yl]-2-(tetrahydropyran-4-ylmethyl)-3,3a,4,5,6,6a-hexahydro-1H-cyclopenta[c]pyrrol-5-amine]
  IC50: 0.7 nM
  Emin: 4.92%

## Fc1ccc(Cl)c(-c2ccc(N[C@H]3C[C@@H]4CN(CC5CCCOC5)C[C@@H]4C3)nn2)c1 (stereo partly drawn) [Compound 33, (3aR,5s,6aS)-N-[6-(2-chloro-5-fluoro-phenyl)pyridazin-3-yl]-2-(tetrahydropyran-3-ylmethyl)-3,3a,4,5,6,6a-hexahydro-1H-cyclopenta[c]pyrrol-5-amine]
  IC50: 1.2 nM
  Emin: 6.3%

## Fc1ccc(Cl)c(-c2ccc(N[C@H]3C[C@@H]4CN(Cc5ccccc5)C[C@@H]4C3)nn2)c1 [Compound 34, (3aR,5s,6aS)-2-benzyl-N-[6-(2-chloro-5-fluoro-phenyl)pyridazin-3-yl]-3,3a,4,5,6,6a-hexahydro-1H-cyclopenta[c]pyrrol-5-amine]
  IC50: 16.8 nM
  Emin: 8.84%

## Cc1cccnc1CN1C[C@H]2C[C@H](Nc3ccc(-c4cc(F)ccc4Cl)nn3)C[C@H]2C1 [Compound 35, (3aR,5s,6aS)-N-[6-(2-chloro-5-fluoro-phenyl)pyridazin-3-yl]-2-[(3-methyl-2-pyridyl)methyl]-3,3a,4,5,6,6a-hexahydro-1H-cyclopenta[c]pyrrol-5-amine]
  IC50: 3.4 nM
  Emin: 6.1%

## Fc1ccc(Cl)c(-c2ccc(N[C@H]3C[C@@H]4CN(Cc5ccccc5F)C[C@@H]4C3)nn2)c1 [Compound 36, (3aR,5s,6aS)-N-[6-(2-chloro-5-fluoro-phenyl)pyridazin-3-yl]-2-[(2-fluorophenyl)methyl]-3,3a,4,5,6,6a-hexahydro-1H-cyclopenta[c]pyrrol-5-amine]
  IC50: 14.6 nM
  Emin: 6.22%

## Cc1nn(C)cc1-c1ccc(N[C@H]2C[C@@H]3CN(CC45CC6CC(CC(C6)C4)C5)C[C@@H]3C2)nn1 [Compound 37, (3aR,5s,6aS)-2-(1-adamantylmethyl)-N-[6-(1,3-dimethylpyrazol-4-yl)pyridazin-3-yl]-3,3a,4,5,6,6a-hexahydro-1H-cyclopenta[c]pyrrol-5-amine]
  IC50: 25.8 nM
  Emin: 5.65%

## Cc1cnn(C)c1-c1ccc(N[C@H]2C[C@@H]3CN(CC4CCCCO4)C[C@@H]3C2)nn1 (stereo partly drawn) [Compound 38, (3aR,5s,6aS)-N-[6-(2,4-dimethylpyrazol-3-yl)pyridazin-3-yl]-2-(tetrahydropyran-2-ylmethyl)-3,3a,4,5,6,6a-hexahydro-1H-cyclopenta[c]pyrrol-5-amine]
  IC50: 31.8 nM
  Emin: 5.45%

## CC(=O)Nc1ccc(-c2ccc(N[C@@H]3C[C@@H]4CN(CCC(C)(C)C)C[C@@H]4C3)nn2)cc1 [Compound 39, N-[4-[6-[[(3aR,5r,6aS)-2-(3,3-Dimethylbutyl)-3,3a,4,5,6,6a-hexahydro-1H-cyclopenta[c]pyrrol-5-yl]amino]pyridazin-3-yl]phenyl]acetamide]
  IC50: 8280 nM
  Emin: 26.8%

## Cc1nn(C)cc1-c1ccc(N[C@@H]2C[C@@H]3CN(CCC(C)(C)C)C[C@@H]3C2)c(F)c1F [Compound 41, (3aR,5r,6aS)-2-(3,3-Dimethylbutyl)-N-[4-(1,3-dimethylpyrazol-4-yl)-2,3-difluoro-phenyl]-3,3a,4,5,6,6a-hexahydro-1H-cyclopenta[c]pyrrol-5-amine]
  IC50: 433 nM
  Emin: 4.62%

## Cc1nn(C)cc1-c1ccc(N[C@@H]2C[C@@H]3CN(CC4CC5C=CC4C5)C[C@@H]3C2)c(F)c1F (stereo partly drawn) [Compound 42, (3aR,5r,6aS)-2-(5-bicyclo[2.2.1]hept-2-enylmethyl)-N-[4-(1,3-dimethylpyrazol-4-yl)-2,3-difluoro-phenyl]-3,3a,4,5,6,6a-hexahydro-1H-cyclopenta[c]pyrrol-5-amine]
  IC50: 422 nM
  Emin: 4.00%

## Cc1nn(C)cc1-c1ccc(N[C@@H]2C[C@@H]3CN(CC4CCCCC4)C[C@@H]3C2)c(F)c1F [Compound 43, (3aR,5r,6aS)-2-(cyclohexylmethyl)-N-[4-(1,3-dimethylpyrazol-4-yl)-2,3-difluoro-phenyl]-3,3a,4,5,6,6a-hexahydro-1H-cyclopenta[c]pyrrol-5-amine]
  IC50: 1210 nM
  Emin: 5.25%

## Cc1nn(C)cc1-c1ccc(N[C@@H]2C[C@@H]3CN(CC4CCCCCC4)C[C@@H]3C2)c(F)c1F [Compound 44, (3aR,5r,6aS)-2-(cycloheptylmethyl)-N-[4-(1,3-dimethylpyrazol-4-yl)-2,3-difluoro-phenyl]-3,3a,4,5,6,6a-hexahydro-1H-cyclopenta[c]pyrrol-5-amine]
  IC50: 2150 nM
  Emin: 5.01%

## Cc1nn(C)cc1-c1ccc(N[C@@H]2C[C@@H]3CN(CC45CC6CC(CC(C6)C4)C5)C[C@@H]3C2)c(F)c1F [Compound 45, (3aR,5r,6aS)-2-(1-adamantylmethyl)-N-[4-(1,3-dimethylpyrazol-4-yl)-2,3-difluoro-phenyl]-3,3a,4,5,6,6a-hexahydro-1H-cyclopenta[c]pyrrol-5-amine]
  IC50: 6590 nM
  Emin: 12.0%

## Cc1nn(C)cc1-c1ccc(O[C@@H]2C[C@@H]3CN(CC(C)C(C)(C)C)C[C@@H]3C2)nn1 (stereo partly drawn) [Compound 46, (3aR,5r,6aS)-5-[6-(1,3-Dimethylpyrazol-4-yl)pyridazin-3-yl]oxy-2-(2,3,3-trimethylbutyl)-3,3a,4,5,6,6a-hexahydro-1H-cyclopenta[c]pyrrole]
  IC50: 1130 nM
  Emin: 4.08%
